According to ChEMBL document CHEMBL1201862, “PubChem BioAssay data set” (2004):
The source made the active and inactive calls.

How the values were obtained:
Estrogen receptor beta [1] = molecular target: T1, Estrogen receptor beta (Homo sapiens, UniProt Q92731);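 also: recombinant ER-beta bound to coactivator SRC1 peptide in presence of estradiol agonist; inhibitors block coactivator peptide binding and lower the FRET signal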
[2] = molecular target: T2, Carboxy-terminal domain RNA polymerase II polypeptide A small phosphatase 1 (Homo sapiens, UniProt Q9GZU7); test: inhibitors of CTDSP1, concentration-response testing, biochemical assay, absorbance-based, actives from ultra-high-throughput screening (AID 540297); assay type: functional
T2 sequence (Q9GZU7 whole entry): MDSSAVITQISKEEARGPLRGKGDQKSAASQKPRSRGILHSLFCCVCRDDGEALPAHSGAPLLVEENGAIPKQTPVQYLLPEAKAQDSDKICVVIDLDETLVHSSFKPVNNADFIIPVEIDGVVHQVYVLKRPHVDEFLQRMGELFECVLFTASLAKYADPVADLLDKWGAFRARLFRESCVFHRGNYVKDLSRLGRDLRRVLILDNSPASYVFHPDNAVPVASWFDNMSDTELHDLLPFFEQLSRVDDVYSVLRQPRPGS

Estrogen receptor = molecular target: T3, Estrogen receptor (Homo sapiens, UniProt P03372);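 also: potency for inhibiting coactivator peptide recruitment to the receptor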
T3 sequence (P03372 whole entry): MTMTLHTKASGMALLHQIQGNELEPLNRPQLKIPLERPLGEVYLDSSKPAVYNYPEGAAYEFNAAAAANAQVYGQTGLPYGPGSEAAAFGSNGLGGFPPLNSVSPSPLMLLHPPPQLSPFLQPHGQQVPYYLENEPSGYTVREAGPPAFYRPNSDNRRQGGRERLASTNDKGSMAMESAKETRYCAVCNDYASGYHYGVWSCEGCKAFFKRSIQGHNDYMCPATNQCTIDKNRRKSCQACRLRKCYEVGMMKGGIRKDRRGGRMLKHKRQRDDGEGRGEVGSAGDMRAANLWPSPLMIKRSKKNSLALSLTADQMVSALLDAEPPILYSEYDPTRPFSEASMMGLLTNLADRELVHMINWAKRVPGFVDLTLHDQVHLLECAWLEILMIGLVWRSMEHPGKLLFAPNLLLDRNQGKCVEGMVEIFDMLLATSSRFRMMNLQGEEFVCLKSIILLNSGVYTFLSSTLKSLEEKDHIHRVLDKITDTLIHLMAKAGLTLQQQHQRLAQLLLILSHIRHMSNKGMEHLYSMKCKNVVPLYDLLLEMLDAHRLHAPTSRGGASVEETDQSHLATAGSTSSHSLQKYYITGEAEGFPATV

Bcl-2-like protein 10 = Bcl-2-like protein 10 (Homo sapiens, UniProt Q9HD36); test: displacers of TR3 peptide from Bcl-B, primary screen, selectivity assay for Bfl-1 inhibitor project, biochemical, fluorescence polarization, FITC-TR3 peptide (AID 748);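 also: fluorescence polarization from a fluorescein-labelled TR3 peptide binding purified Bcl-B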
Bcl-2-like protein 10, sequence (Q9HD36 whole entry): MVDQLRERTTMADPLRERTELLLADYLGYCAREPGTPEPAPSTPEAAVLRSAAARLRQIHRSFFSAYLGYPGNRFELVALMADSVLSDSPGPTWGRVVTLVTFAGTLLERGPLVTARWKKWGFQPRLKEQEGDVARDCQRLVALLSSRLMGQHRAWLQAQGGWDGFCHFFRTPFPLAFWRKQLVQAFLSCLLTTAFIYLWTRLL

Estrogen receptor beta [3] = molecular target: T1, Estrogen receptor beta; test: ERβ–SRC-3 coactivator interaction inhibitors, confirmation, orthogonal assay, biochemical, ELISA, streptavidin-HRP readout (AID 1060)
[4] = molecular target: T4, Heat shock factor protein 1 (Mus musculus, UniProt P38532); test: HSF1 potentiators in luciferase reporter cells, confirmation, cell-based, NIH3T3, luminescence, dose retest (AID 435004); assay type: functional;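 also: stress induced by proteasome inhibitor MG132 added 30 min after compound; luciferase reporter driven by HSF1 response element in NIH3T3 cells; actives raise luminescence as potentiators of the MG132 stress response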
T4 sequence (P38532 whole entry): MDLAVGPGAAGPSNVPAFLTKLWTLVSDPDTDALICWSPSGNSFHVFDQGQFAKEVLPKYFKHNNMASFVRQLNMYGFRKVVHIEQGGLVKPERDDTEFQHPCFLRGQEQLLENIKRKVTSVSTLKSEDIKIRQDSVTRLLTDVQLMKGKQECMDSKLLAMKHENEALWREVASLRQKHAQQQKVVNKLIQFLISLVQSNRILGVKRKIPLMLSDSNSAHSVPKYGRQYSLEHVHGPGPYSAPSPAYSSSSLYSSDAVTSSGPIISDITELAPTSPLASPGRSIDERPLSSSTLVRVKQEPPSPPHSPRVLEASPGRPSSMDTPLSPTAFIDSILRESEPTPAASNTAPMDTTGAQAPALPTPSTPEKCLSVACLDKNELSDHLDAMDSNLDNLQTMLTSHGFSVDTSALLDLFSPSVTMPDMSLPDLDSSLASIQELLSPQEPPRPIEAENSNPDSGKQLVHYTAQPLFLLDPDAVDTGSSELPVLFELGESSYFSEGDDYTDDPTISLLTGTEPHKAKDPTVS

[5] = molecular target: C-C chemokine receptor type 6 (Homo sapiens, UniProt P51684); test: CCR6 receptor antagonists, dose response, cell-based, luminescent beta-arrestin readout (AID 504728); assay type: functional
C-C chemokine receptor type 6, sequence (P51684 whole entry): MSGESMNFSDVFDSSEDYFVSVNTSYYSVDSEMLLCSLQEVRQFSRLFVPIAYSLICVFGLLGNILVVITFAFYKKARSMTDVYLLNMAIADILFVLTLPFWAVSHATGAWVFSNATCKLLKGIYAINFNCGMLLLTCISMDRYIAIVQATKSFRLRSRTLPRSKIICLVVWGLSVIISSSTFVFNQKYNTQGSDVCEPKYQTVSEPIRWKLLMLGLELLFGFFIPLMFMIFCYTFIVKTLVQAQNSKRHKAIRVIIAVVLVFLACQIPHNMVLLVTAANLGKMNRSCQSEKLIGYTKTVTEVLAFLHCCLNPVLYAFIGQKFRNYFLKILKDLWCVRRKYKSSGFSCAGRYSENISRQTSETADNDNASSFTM

Beta-galactosidase = Beta-galactosidase (Escherichia coli, UniProt Q8VNN2); test: beta-galactosidase enzyme inhibitors and activators, dose response, artefact control for CCR6 antagonist project, biochemical, E. coli enzyme, set 3 (AID 504712); assay type: functional
Beta-galactosidase, sequence (Q8VNN2 whole entry): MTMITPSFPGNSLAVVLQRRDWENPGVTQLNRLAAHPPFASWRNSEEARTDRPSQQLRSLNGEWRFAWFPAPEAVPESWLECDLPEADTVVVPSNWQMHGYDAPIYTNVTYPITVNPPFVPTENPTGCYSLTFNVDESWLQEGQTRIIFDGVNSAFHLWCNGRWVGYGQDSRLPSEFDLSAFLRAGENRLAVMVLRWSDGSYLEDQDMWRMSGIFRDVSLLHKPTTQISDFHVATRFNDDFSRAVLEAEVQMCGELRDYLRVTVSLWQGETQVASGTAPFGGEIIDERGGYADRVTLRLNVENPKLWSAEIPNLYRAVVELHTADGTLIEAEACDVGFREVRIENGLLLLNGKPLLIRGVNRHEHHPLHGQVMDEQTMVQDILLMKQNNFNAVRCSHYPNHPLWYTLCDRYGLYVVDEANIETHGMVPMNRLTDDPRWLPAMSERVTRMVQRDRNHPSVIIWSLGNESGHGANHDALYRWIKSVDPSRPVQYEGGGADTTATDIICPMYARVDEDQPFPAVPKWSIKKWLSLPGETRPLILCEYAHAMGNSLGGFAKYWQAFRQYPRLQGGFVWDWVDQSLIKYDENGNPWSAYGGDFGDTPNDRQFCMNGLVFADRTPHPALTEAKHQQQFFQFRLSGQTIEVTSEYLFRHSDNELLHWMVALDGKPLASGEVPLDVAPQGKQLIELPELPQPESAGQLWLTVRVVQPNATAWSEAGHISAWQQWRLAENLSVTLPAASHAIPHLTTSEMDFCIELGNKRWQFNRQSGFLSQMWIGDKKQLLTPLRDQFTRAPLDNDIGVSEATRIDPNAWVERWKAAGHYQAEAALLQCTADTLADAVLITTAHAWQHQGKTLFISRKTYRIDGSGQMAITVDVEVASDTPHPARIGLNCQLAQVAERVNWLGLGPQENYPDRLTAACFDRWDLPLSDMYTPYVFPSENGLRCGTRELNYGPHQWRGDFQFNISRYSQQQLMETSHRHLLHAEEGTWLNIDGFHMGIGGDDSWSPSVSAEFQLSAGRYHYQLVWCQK

[6] = molecular target: T5, Mannose-6-phosphate isomerase (Homo sapiens, UniProt P34949); test: human PMI inhibitors, high substrate, primary screen, biochemical, fluorescence intensity, high mannose 6-phosphate (AID 1220)
T5 sequence (P34949 whole entry): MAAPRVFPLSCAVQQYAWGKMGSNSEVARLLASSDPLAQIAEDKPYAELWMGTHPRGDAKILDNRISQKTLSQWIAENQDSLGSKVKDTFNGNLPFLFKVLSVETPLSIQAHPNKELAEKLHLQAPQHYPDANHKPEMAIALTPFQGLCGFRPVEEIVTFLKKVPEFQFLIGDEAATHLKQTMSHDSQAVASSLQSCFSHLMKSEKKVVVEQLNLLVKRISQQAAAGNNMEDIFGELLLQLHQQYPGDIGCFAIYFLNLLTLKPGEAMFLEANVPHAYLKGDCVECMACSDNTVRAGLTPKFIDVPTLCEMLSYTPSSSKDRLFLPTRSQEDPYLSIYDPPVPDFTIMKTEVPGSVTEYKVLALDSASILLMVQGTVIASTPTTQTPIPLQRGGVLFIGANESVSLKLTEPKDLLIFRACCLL

Galanin receptor type 2 = Galanin receptor type 2 (Homo sapiens, UniProt O43603); test: Dose Response cell-based high-throughput screening assay to identify antagonists of galanin receptor 2 (GALR2). [Related pubchem assays: 828, 866 ]; assay type: functional
Galanin receptor type 2, sequence (O43603 whole entry): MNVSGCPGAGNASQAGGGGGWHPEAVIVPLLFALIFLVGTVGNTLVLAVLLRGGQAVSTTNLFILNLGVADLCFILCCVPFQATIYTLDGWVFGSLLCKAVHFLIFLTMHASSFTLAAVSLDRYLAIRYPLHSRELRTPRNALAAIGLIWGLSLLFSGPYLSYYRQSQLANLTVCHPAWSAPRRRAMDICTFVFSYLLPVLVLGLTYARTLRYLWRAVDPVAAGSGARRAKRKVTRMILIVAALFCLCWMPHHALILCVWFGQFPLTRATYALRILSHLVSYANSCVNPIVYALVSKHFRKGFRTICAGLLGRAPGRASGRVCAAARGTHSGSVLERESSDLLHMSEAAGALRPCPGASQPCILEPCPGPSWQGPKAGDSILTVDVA

[7] = microbe, parasite or virus in culture; assay type: functional; settings: Mycobacterium tuberculosis
[8] = molecular target: T5, Mannose-6-phosphate isomerase; test: inhibitors of human PMI, primary screen, biochemical, fluorescence intensity, coupled assay (AID 1209)
[9] = molecular target: Lysosomal acid glucosylceramidase (Homo sapiens, UniProt P04062); test: Dose response cell-based high throughput screening assay to identify enhancers of beta-glucosidase activity. [Related pubchem assays: 784 ]; assay type: functional
Lysosomal acid glucosylceramidase, sequence (P04062 whole entry): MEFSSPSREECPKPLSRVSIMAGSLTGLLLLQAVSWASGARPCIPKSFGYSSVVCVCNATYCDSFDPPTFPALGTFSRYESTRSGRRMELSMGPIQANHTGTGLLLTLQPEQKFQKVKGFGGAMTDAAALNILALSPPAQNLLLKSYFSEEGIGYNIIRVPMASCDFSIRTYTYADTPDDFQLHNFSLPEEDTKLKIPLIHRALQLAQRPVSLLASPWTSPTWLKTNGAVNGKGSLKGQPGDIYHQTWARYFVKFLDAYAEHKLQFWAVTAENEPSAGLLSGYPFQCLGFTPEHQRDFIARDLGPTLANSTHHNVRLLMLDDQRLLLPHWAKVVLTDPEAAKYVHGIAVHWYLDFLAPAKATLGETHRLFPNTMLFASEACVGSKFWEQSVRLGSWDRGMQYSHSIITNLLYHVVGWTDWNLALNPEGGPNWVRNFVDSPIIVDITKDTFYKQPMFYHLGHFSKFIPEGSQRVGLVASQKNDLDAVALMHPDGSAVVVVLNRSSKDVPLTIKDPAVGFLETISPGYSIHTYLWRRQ

[10] = Cytotoxicity screening for potential Inhibitors of Bacterial Capsule Biogenesis. [Related pubchem assays (depositor defined):AID488970]; assay type: functional
[11] = cytotoxicity in HEK-293T NF-kB-Luc cells, dose response, cytotoxicity control for B/T-cell NF-kB inhibitor project, cell-based, uHTS hits (AID 489019); assay type: functional;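 also: IC50 reflects cytotoxicity as loss of cell viability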
Jurkat = test: antigen receptor-induced NF-kB inhibitors, dose response, Jurkat, luciferase reporter, luminescence, B- and T-cell (AID 489004); assay type: functional, cell-based; settings: Homo sapiens;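 also: NF-kB luciferase reporter Jurkat cells stimulated with PMA plus ionomycin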
HEK293 [12] = test: PMA/Ionomycin induced NF-kB luciferase assay in 293- NF-kB-Luc stable cells. [Related pubchem assays: 1299, 1270, 1295, 1375, 1287, 1281, 1293, 1291, 1289, 1280, 465, 1364, 1282, 1372, 1365, 1370, 1367, 1366, 1269, 1373, 1292, 1290, 1302, 1371, 1283, 1271, 1294, 1374, 1368, 1369 ]; assay type: functional, cell-based; settings: Homo sapiens
[13] = molecular target: T6, Luciferin 4-monooxygenase (Photinus pyralis, UniProt P08659); test: Counter Screen for Luciferase-based Assay Positives. [Related pubchem assays: 620, 618, 411 ]
T6 sequence (P08659 whole entry): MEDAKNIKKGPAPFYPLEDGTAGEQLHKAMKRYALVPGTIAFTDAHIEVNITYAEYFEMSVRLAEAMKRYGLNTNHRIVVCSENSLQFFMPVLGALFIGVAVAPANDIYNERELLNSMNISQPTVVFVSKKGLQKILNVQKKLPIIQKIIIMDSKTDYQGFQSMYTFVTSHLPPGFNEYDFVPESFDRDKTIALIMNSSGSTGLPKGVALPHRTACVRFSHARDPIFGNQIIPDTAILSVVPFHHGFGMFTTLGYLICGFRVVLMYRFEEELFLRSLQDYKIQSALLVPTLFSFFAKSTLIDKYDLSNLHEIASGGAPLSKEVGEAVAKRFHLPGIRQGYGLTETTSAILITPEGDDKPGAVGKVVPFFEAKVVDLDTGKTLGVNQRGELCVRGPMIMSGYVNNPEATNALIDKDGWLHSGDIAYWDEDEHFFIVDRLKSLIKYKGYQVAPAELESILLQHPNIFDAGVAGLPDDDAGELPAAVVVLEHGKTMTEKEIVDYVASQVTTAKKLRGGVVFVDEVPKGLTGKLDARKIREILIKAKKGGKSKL

[14] = molecular target: T4, Heat shock factor protein 1; test: inhibition of MG132-induced HSE-luciferase signal, confirmation, cell-based, NIH3T3, luminescence, dose retest (AID 2382); assay type: functional;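 also: NIH3T3 fibroblasts with HSF1-driven luciferase reporter stressed by proteasome inhibitor MG132; luminescence from HSF1-driven luciferase expression after 8 hours of MG132 stress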
HT-1080 = test: cytotoxicity in HT1080 fibrosarcoma cells, cell-based, fluorescence readout (AID 620); assay type: functional; settings: Homo sapiens
HEK293 [15] = test: Cytotoxicity assay in HEK293 cells. [Related pubchem assays (depositor defined):AID1266, AID1269, AID1270, AID1271, AID1280, AID1281, AID1282, AID1283, AID1287, AID1289, AID1290, AID1291, AID1292, AID1293, AID1294, AID1295, AID1299, AID1302, AID1364, AID1365, AID1366, AID1367, AID1369, AID1370, AID1371, AID1372, AID1373, AID1374, AID1375, AID1384 …; assay type: functional, cell-based; settings: Homo sapiens
[16] = molecular target: T6, Luciferin 4-monooxygenase; test: In vitro luciferase assay using purified luciferase. [Related pubchem assays: 1299, 1270, 1295, 1375, 1287, 1281, 1293, 1291, 1289, 1280, 465, 1364, 1282, 1372, 1365, 1370, 1367, 1366, 1266, 1373, 1292, 1290, 1302, 1371, 1283, 1271, 1294, 1374, 1368, 1369 ]
[17] = molecular target: T7, Microphthalmia-associated transcription factor (Homo sapiens, UniProt O75030); test: TRPM1 promoter luciferase signal decrease, dose response, MITF inhibitor project, cell-based, SK-MEL-5, cherry-picked, set 3 (AID 493073); assay type: functional
T7 sequence (O75030 whole entry): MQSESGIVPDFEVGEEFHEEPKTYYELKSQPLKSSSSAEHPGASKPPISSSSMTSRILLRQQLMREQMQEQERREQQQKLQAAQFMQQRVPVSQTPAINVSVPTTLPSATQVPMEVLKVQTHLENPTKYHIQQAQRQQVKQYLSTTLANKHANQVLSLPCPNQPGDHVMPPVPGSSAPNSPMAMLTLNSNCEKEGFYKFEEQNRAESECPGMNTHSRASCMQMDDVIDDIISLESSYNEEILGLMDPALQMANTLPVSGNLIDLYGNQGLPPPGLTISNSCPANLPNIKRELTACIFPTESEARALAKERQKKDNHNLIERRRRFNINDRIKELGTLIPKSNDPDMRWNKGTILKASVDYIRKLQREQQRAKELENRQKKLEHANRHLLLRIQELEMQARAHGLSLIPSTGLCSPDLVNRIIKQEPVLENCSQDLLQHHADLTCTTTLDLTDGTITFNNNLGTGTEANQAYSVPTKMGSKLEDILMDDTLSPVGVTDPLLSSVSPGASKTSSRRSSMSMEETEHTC

X-box-binding protein 1 = X-box-binding protein 1 (Homo sapiens, UniProt P17861); assay type: functional, Cricetulus griseus;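 also: confirmatory dose-response counter-screen serving a CHOP assay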
X-box-binding protein 1, sequence (P17861 whole entry): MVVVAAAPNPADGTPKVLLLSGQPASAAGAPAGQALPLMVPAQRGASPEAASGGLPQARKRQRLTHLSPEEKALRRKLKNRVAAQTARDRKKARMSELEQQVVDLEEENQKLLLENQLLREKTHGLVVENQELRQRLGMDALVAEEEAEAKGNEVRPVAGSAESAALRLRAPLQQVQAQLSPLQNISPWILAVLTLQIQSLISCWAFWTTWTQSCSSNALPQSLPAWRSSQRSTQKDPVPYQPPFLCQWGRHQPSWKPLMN

HeLa = test: HeLa cell cytotoxicity, dose response, cytotoxicity control, 24 h, cherry-picked samples (AID 504726); assay type: functional, cell-based; settings: Homo sapiens;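 also: potency for cytotoxicity as loss of luminescence signal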
[18] = molecular target: T8, Eukaryotic translation initiation factor 2-alpha kinase 3 (Homo sapiens, UniProt Q9NZJ5); test: Counterscreen assay for PERK inhibitors: Dose response cell-based high throughput screening assay to measure inhibition of PERK at 6 hours. [Related pubchem assays: 1522, 1416 ]; assay type: functional
T8 sequence (Q9NZJ5 whole entry): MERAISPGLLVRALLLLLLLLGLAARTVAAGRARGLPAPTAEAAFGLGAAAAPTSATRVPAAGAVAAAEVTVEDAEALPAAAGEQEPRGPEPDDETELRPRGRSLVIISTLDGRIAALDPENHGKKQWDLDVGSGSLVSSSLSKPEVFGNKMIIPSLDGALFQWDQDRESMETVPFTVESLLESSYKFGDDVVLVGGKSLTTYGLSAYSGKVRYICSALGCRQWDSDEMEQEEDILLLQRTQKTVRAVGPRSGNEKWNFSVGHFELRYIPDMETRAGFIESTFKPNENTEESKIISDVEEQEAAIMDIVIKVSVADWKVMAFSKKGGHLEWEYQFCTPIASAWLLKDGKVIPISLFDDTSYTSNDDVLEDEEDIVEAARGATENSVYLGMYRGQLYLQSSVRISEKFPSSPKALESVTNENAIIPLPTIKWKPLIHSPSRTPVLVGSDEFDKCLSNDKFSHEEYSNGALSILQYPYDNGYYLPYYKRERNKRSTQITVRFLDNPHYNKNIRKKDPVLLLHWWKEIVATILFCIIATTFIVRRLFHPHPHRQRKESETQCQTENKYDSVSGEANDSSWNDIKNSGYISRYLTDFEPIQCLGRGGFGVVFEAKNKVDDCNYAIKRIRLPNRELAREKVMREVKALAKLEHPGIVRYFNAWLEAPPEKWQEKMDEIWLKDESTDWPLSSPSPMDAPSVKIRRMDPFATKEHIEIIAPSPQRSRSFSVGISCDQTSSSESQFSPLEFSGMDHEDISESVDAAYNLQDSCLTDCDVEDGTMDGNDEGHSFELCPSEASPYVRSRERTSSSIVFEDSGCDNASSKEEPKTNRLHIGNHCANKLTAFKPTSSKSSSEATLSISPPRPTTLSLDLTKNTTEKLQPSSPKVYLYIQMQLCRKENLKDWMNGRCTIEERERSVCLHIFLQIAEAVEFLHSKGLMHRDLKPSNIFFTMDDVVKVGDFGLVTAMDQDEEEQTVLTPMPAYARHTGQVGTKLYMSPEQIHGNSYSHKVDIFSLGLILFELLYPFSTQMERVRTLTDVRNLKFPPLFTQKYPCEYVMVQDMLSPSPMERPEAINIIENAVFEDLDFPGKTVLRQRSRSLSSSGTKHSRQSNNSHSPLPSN

[19] = molecular target: T8, Eukaryotic translation initiation factor 2-alpha kinase 3; test: Dose response cell-based high-throughput screening assay to measure PERK inhibition. [Related pubchem assays: 1416 ]; assay type: functional

T1 sequence (Q92731 whole entry, the tested form may be a part): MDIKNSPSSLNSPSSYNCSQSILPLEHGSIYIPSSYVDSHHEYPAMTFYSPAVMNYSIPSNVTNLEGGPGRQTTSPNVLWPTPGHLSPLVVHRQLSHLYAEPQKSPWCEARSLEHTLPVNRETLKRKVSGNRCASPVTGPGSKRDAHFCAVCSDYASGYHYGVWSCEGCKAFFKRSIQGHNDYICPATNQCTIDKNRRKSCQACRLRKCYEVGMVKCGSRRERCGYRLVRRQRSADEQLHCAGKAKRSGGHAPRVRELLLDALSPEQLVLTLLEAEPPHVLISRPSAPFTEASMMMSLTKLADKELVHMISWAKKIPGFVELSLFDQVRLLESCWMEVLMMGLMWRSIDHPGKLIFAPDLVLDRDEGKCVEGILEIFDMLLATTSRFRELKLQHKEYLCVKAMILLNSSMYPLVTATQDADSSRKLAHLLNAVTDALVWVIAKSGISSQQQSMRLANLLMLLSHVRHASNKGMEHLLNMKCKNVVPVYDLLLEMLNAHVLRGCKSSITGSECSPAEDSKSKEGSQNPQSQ

**Q.** Which results are given for `COc1ccc2c(c1)c(=O)oc1cc(OCC(=O)NC3CCCCC3)ccc12`?
**A.** IC50 (Estrogen receptor beta [1]): 7.51 µM (active); IC50 [2]: 6.74 µM (active); IC50 (Estrogen receptor): 17.9 µM (active); IC50 (Bcl-2-like protein 10): 34.6 µM (active); IC50 (Estrogen receptor beta [3]): > 50 µM (not active)

**Q.** For `O=[N+]([O-])c1cc(-c2ncccn2)c([N+](=O)[O-])s1`, which EC50 [4] is on record?
**A.** 6.64 µM (active)

**Q.** And the IC50 [5]?
**A.** 24 µM (inactive)

**Q.** What about the IC50 (Beta-galactosidase) of the same molecule?
**A.** > 66.6 µM (inactive)

**Q.** What about the IC50 [6] of the same molecule?
**A.** 7.48 µM (active)

**Q.** What about the IC50 (Galanin receptor type 2) of the same molecule?
**A.** 8.96 µM (active)

**Q.** And the CC50 [7]?
**A.** 23.2 µM (active)

**Q.** What about the IC50 [8] of the same molecule?
**A.** 6.92 µM (active)

**Q.** With `Cc1nc(SCC(=O)Nc2ccc3c(c2)OCCO3)c2oc3ccccc3c2n1` as the molecule, how does the EC50 [9] read?
**A.** > 50 µM (not active)

**Q.** Which CC50 [10] does the source give for `Cc1cccc(C)c1NC(=O)C[N+](C)(C)CC(O)COc1cccc2ccccc12` (configuration not stated) here?
**A.** 22 µM (active)

**Q.** With `CC1CCN(c2nc3ccc(C(=O)O)cc3s2)CC1` as the molecule, how does the IC50 [11] read?
**A.** > 80 µM (inactive)

**Q.** What about the IC50 (Jurkat) of the same molecule?
**A.** 1.82 µM (active)

**Q.** And the EC50 (HEK293 [12])?
**A.** 12.5 µM (not active)

**Q.** And the EC50 [13]?
**A.** 7.86 µM (active)

**Q.** And the EC50 [14]?
**A.** 0.268 µM (active)

**Q.** And the EC50 (HT-1080)?
**A.** > 50 µM (not active)

**Q.** And the EC50 (HEK293 [15])?
**A.** 13.1 µM (inactive)

**Q.** What about the EC50 [16] of the same molecule?
**A.** > 8 µM (not active)

**Q.** And the AC50 [17]?
**A.** 1.25 µM (active)

**Q.** With `Cc1cccc(/C=C/c2nc(O)c3ccccc3n2)c1` as the molecule, how does the “Absolute IC50 (XBP1)” value (X-box-binding protein 1) read?
**A.** 10 µM

**Q.** With `COc1cccc(NC(=O)N(CCN(C)C)C(C)c2cccnc2)c1` (configuration not stated) as the molecule, how does the AC50 (HeLa) read?
**A.** 123 µM (active)

**Q.** Which EC50 [18] does the source give for `O=C(N/N=C/c1ccncc1)c1ccccc1` here?
**A.** > 55.7 µM (not active)

**Q.** What about the EC50 [19] of the same molecule?
**A.** > 55.7 µM (not active)
